# Read-outs that look alike come from different tables or passages of the source.
# Legend:
# GlcPSe = biological target: T1, GlcPSe (Staphylococcus epidermidis, UniProt A0A0H2VG78, F348H); experiment: biochemical; conditions: read-out: % inhibition at 2 mM
# T1 construct: gene glcP
# native human GLUT5 = biological target: T2, native human GLUT5 (Homo sapiens, UniProt P22732); experiment: […]-fructose uptake in MCF7 cells, Dixon plot; format: cell-based; conditions: competitive with fructose; 50 μM cytochalasin B present to block GLUT2; 3-20 mM fructose; 2 min; 22 °C
# T2 construct: gene SLC2A5; native full-length transporter in MCF7 breast cancer cells
# T2 sequence (P22732 1-501): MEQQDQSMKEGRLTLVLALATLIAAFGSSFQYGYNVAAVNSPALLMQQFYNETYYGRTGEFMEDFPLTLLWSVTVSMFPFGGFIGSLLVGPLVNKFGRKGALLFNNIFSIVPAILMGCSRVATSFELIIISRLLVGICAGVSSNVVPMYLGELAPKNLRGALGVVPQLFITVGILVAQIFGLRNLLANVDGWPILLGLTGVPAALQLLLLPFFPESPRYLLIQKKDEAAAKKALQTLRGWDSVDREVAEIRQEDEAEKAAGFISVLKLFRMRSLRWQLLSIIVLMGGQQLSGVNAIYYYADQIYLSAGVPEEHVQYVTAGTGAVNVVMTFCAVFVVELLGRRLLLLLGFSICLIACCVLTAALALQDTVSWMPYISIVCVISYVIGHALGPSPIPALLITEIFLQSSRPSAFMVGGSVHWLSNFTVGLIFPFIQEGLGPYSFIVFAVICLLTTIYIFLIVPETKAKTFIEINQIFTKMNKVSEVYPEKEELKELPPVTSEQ
# GLUT1 [1] = biological target: T3, GLUT1 (Homo sapiens, UniProt P11166); experiment: […]-glucose entrance counter-flow in proteoliposomes; format: biochemical
# T3 construct: gene SLC2A1; full length, N-terminal His6 tag, Sf21 insect cells, purified in DDM, reconstituted in proteoliposomes
# T3 sequence (P11166 1-492): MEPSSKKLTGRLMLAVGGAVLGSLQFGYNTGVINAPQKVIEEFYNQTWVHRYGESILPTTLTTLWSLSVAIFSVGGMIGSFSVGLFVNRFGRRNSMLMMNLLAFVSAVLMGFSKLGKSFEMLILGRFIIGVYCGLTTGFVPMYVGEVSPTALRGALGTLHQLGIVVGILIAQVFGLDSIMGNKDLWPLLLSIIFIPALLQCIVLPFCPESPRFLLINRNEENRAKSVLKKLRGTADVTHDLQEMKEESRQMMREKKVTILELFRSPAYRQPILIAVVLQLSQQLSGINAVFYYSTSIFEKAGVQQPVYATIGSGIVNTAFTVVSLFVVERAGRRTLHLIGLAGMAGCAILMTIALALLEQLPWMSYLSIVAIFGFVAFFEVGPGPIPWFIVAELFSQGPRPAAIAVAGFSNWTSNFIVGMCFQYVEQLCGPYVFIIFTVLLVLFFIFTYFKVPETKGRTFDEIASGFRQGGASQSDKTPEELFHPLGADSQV
# GLUT2 [2] = biological target: T4, GLUT2 (Homo sapiens, UniProt P11168); experiment: […]-fructose entrance counter-flow in proteoliposomes; format: biochemical; conditions: 10 μM 14C-fructose outside, 200 mM fructose inside; pH 7.5; 1 min; labelled compound
# T4 construct: gene SLC2A2; full length, N-terminal His6 tag, Sf21 insect cells, purified in DDM, reconstituted in proteoliposomes
# T4 sequence (P11168 1-524): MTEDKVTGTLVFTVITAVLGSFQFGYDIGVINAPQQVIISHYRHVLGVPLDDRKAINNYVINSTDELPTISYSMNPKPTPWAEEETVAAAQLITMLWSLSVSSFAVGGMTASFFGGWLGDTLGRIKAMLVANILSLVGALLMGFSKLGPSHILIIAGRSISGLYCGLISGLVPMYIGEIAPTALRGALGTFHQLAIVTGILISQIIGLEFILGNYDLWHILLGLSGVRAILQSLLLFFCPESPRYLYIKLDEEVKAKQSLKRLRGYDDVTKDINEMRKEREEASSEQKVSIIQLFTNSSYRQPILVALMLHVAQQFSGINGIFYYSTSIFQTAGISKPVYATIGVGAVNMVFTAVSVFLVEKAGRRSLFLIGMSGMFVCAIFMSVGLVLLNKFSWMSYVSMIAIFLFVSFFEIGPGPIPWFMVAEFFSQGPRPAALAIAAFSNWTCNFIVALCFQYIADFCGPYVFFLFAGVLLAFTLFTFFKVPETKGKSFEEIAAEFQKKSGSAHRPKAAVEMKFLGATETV
# GLUT3 = biological target: T5, GLUT3 (Homo sapiens, UniProt P11169); experiment: […]-glucose entrance counter-flow in proteoliposomes; format: biochemical; conditions: 10 μM 14C-glucose outside, 200 mM glucose inside; pH 7.5; 1 min; labelled compound
# T5 construct: gene SLC2A3; full length, N-terminal His6 tag, Sf21 insect cells, purified in DDM, reconstituted in proteoliposomes
# T5 sequence (P11169 1-496): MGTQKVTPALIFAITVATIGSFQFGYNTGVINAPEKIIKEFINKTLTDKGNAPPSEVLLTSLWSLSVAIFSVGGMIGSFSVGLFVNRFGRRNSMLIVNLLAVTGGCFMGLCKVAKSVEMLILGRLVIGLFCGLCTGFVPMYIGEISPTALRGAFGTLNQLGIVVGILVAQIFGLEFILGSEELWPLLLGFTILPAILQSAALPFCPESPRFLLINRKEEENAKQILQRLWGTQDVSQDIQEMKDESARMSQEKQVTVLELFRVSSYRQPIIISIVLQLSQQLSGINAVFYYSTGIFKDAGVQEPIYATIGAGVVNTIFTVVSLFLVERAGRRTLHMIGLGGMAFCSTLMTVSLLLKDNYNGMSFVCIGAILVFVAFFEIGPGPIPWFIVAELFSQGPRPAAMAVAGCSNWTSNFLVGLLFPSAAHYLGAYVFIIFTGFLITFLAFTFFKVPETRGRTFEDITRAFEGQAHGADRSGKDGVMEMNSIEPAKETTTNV
# GLUT2 [3] = biological target: T4, GLUT2; experiment: as above; format: biochemical; conditions: 10 μM 14C-glucose outside, 200 mM glucose inside; pH 7.5; 1 min; labelled compound
# GLUT1 [4] = biological target: T3, GLUT1; experiment: as above; format: biochemical; conditions: 10 μM 14C-glucose outside, 200 mM glucose inside; pH 7.5; 1 min; labelled compound
# GLUT4 = biological target: T6, GLUT4 (Homo sapiens, UniProt P14672); experiment: as above; format: biochemical; conditions: 10 μM 14C-glucose outside, 200 mM glucose inside; pH 7.5; 1 min; labelled compound
# T6 construct: gene SLC2A4; full length, N-terminal His6 tag, Sf21 insect cells, purified in DDM, reconstituted in proteoliposomes
# T6 sequence (P14672 1-509): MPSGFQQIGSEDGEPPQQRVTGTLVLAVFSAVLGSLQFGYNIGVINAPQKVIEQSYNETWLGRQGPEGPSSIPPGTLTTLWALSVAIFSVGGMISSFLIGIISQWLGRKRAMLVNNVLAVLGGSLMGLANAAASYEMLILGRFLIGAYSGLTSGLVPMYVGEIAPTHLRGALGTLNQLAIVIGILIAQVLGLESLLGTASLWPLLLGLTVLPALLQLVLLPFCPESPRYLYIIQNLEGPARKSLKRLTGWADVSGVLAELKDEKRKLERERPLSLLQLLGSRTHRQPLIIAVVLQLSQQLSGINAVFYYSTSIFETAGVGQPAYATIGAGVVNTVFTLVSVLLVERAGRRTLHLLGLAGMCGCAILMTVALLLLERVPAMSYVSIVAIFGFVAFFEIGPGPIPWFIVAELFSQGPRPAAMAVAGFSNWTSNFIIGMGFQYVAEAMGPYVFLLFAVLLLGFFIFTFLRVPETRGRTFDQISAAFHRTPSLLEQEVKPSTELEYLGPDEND
# T1 sequence (A0A0H2VG78 whole entry F348H): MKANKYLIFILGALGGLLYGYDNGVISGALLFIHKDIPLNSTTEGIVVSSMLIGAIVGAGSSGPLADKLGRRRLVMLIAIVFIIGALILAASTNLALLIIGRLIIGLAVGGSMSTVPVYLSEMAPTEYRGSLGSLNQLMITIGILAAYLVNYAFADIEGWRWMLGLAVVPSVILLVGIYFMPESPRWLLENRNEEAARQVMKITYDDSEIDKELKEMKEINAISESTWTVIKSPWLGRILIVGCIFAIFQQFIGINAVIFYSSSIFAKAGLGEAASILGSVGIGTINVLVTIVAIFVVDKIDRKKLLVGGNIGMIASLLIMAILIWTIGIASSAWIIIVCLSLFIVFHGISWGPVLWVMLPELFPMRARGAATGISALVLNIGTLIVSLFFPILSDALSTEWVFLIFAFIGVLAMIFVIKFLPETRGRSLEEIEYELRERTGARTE
smiles,measurement,setting,value
"CS(=O)(=O)c1ccc(Nc2ccc3c(c2)OCO3)c([N+](=O)[O-])c1 [MSNBA, N-[4-(methylsulfonyl)-2-nitrophenyl]-1,3-benzodioxol-5-amine]",inhibition at 2000 µM,GlcPSe,75%
same,Ki,native human GLUT5,3.2 ± 0.4 µM
C=C1[C@@H](C)[C@H]2[C@H](Cc3ccccc3)NC(=O)[C@]23OC(=O)/C=C/[C@H](O)CCC[C@@H](C)C/C=C/[C@H]3[C@@H]1O [cytochalasin B],% inhibition at 2 mM,"GLUT1 [1]; 10 μM 14C-glucose outside, 200 mM glucose inside, pH 7.5, 1 min","Effect of common GLUT1 inhibitors on the relative transport activity of GLUT5, GLUT1 and GlcPSe"
OCC1(O)OC[C@@H](O)[C@@H](O)[C@@H]1O (stereo partly drawn) [fructose],14C-fructose entrance counter-flow in proteoliposomes,GLUT2 [2],fructose transport of GLUT2 were assayed by the entrance counter-flow method in proteoliposomes
OC[C@H]1OC(O)[C@H](O)[C@@H](O)[C@@H]1O (stereo partly drawn) [glucose],14C-glucose entrance counter-flow in proteoliposomes,GLUT3,"Glucose transport of GLUT1, GLUT2, GLUT3 and GLUT4"
same,14C-glucose entrance counter-flow in proteoliposomes,GLUT2 [3],"Glucose transport of GLUT1, GLUT2, GLUT3 and GLUT4"
same,14C-glucose entrance counter-flow in proteoliposomes,GLUT1 [4],"Glucose transport of GLUT1, GLUT2, GLUT3 and GLUT4"
same,14C-glucose entrance counter-flow in proteoliposomes,GLUT4,"Glucose transport of GLUT1, GLUT2, GLUT3 and GLUT4"
O=C(CCc1ccc(O)cc1)c1c(O)cc(O)cc1O [phloretin],% inhibition at 2 mM,GLUT1 [1],"Effect of common GLUT1 inhibitors on the relative transport activity of GLUT5, GLUT1 and GlcPSe"

# Reference: PMC4831007, “Discovery of a specific inhibitor of human GLUT5 by virtual screening and in vitro transport evaluation” (Scientific Reports, 2016)
